Where two headings read alike, the source gives them in different places.
Legend:
[1] = system: DX-5; assay: Anti-proliferation assay, hypoxia vs normoxia (Table 1B)
[2] = system: H460 lung carcinoma spheroids; assay: Spheroid model, clonogenic survival; conditions: Homo sapiens, NCI-H460, 2 h, read-out: IC90 H460 Spheroid 10% O2
[3] = system: EM9 cells (XRCC1); assay: Antiproliferation assay - DNA mutant repair cells; conditions: Cricetulus griseus, 2 h
[4] = in vivo; conditions: for half-life: t ½, mice
[5] = system: UV41 cells (XPF); assay: Antiproliferation assay - DNA mutant repair cells; conditions: Cricetulus griseus, 2 h
[6] = system: HCT116; assay: Anti-proliferation assay, hypoxia vs normoxia (Table 1B); conditions: for IC50: Homo sapiens
[7] = system: NCI-H460 cells; assay: Antiproliferation assay (Alamar Blue), anoxia vs air; conditions: Homo sapiens, NCI-H460, 2 h
[8] = system: MES-SA/Dx5 cells; assay: as above; conditions: Homo sapiens, MES-SA/Dx5, 2 h
[9] = system: IRS1SF cells (XRCC3); assay: Antiproliferation assay - DNA mutant repair cells; conditions: Cricetulus griseus, 2 h
[10] = system: H460 cell line; assay: Anti-proliferation assay, hypoxia vs normoxia (Table 1A); conditions: for IC50: Homo sapiens; for HCR P: ratio of IC50 in normoxia and hypoxia
[11] = system: NCI-H460 cells; assay: Antiproliferation assay - oxygen dependence; format: cell-based, human; conditions: Homo sapiens
Source text: . […] The calculated IC50 values (μM) are tabulated in Table Y1 (H460 cells) or Table Y2 (HT29 cells) below.

[12] = system: H460 cells exposed as monolayers; assay: Clonogenic survival of monolayer cells (Example 35); conditions: Homo sapiens, NCI-H460, 2 h
[13] = Plasma stability (Table 2B)
[14] = system: UV135 cells (XPG); assay: Antiproliferation assay - DNA mutant repair cells; conditions: Cricetulus griseus, 2 h
[15] = format: physicochemical; conditions: glassy carbon, Ag/AgCl reference; for Reduction Potentials, 100 mV/sec: scan rate 100 mV/sec; for Reduction Potentials, 10,000 mV/sec: scan rate 10,000 mV/sec
[16] = system: AA8 cells (wild type); assay: Antiproliferation assay - DNA mutant repair cells; conditions: Cricetulus griseus, CHO-AA8, 2 h
[17] = system: MES-SA cells; assay: Antiproliferation assay (Alamar Blue), anoxia vs air; conditions: Homo sapiens, 2 h
[18] = system: HT29 cells; assay: as above; conditions: Homo sapiens, HT-29, 2 h
[19] = system: HT29; assay: Anti-proliferation assay, hypoxia vs normoxia (Table 1B); conditions: for IC50: Homo sapiens
[20] = system: NCI H460 xenograft; assay: H460 xenograft mouse model with CDDP (Example 51); format: in vivo; conditions: 50 mg/kg daily or 100 mg/kg every three days, saline formulation
Protocol: Female CB17/SCID mice (purchased from Charles River, Cambridge, Mass.), 7-8 weeks of age, were allowed to acclimatize for at least three days, and handled under pathogen-free conditions. Human non-small cell lung carcinoma cell line NCI H460 was obtained from the American Type Culture Collection. The cell lines were cultured and harvested as described in Example 47 above, and inoculated at 3×10^6 cells/animal in the peritoneal subcutaneous space. When the tumors grew to an average volume of 100 mm^3, treatment was initiated in which groups of 10 mice received vehicle (Group 1), CDDP at 3 or 6 mg/kg (Groups 2 and 3, respectively, IV one time), Compound 25 at 50 mg/kg in saline 5 times per week for two weeks (Group 4), Compound 25 at 100 mg/kg every three days for 5 times (Group 5) or the combination of each dose of Compound 25 with either 3 or 6 mg/kg of CDDP (Groups 6 and 7, respectively). Results for groups receiving 50 mg/kg of Compound 25 are illustrated in the FIG. 1.

[21] = system: PC3 cells; assay: Antiproliferation assay (Alamar Blue), anoxia vs air; conditions: Homo sapiens, PC-3, 2 h
[22] = read-out: DX-5 P H (proliferation IC50, hypoxia)
[23] = read-out: DX-5 P N (proliferation IC50, normoxic)
[24] = CD-1, Balb/c for Compound 1, mouse, ip
[25] = CD-1, Balb/c for Compound 1, mouse, iv
[26] = CD-1, Balb/c for Compound 1, mouse, iv, intravenous administration in mice
[27] = mouse, ip, intraperitoneal administration in mice
[28] = HCT-116, read-out: HCT116 P H (proliferation IC50, hypoxia)
[29] = HCT-116, read-out: HCT116 P N (proliferation IC50, normoxic)
[30] = read-out: IC50 H460 Air, air, 2 h exposure
[31] = read-out: IC50 H460 Anoxia, anoxia, 2 h exposure
[32] = read-out: IC50 MES-SA/Dx5 Anoxia
[33] = NCI-H460, read-out: Hypoxia P (proliferation IC50)
[34] = NCI-H460, read-out: Normoxia P (proliferation IC50)
[35] = NCI-H460, read-out: IC50 in H460 cells, 0.1% O2
[36] = NCI-H460, read-out: IC50 in H460 cells, 0.6% O2
[37] = NCI-H460, read-out: IC50 in H460 cells, 1% O2
[38] = NCI-H460, read-out: IC50 in H460 cells, 10% O2
[39] = NCI-H460, read-out: IC50 in H460 cells, Air
[40] = NCI-H460, read-out: IC50 in H460 cells, N2
[41] = read-out: IC90 H460 Monolayer Air
[42] = read-out: IC90 H460 Monolayer N2
[43] = HT-29, read-out: HT29 P H (proliferation IC50, hypoxia)
[44] = HT-29, read-out: HT29 P N (proliferation IC50, normoxic)

For Cn1c(COP(=O)(NCCCl)NCCCl)cnc1[N+](=O)[O-] [Compound 36], the “DX-5 HCR” value [1] was greater than 13, the IC50 [1, 22] was 7.5 µM and the IC50 [1, 23] was greater than 100 µM. The IC90 [2] was greater than 100 µM, the IC50 ([3]; read-out: IC50 EM9 Air) was greater than 100 µM and the IC50 ([3]; read-out: IC50 EM9 Anoxia) was 4 µM. The clearance ([4]; CD-1 (Compounds 5, 23, 36), Balb/c (Compound 1), mouse, iv) was 77.4 mL/min/kg, the Cmax [4, 24] was 44000 ng/mL and the AUC [4, 25] was 10800 ng·h/mL. The Cmax [4, 25] was 27700 ng/mL, the Vd [4, 25] was 1.27 L/kg and the half-life [4, 26] was 14.4 min. For the same compound, the AUC ([4]; CD-1, mouse, ip) was 26100 ng·h/mL, the half-life [4, 27] was 10.8 min and the IC50 ([5]; read-out: IC50 UV41 Air) was 20 µM. For the same compound, the IC50 ([5]; read-out: IC50 UV41 Anoxia) was 0.03 µM, the “HCT116 HCR” value [6] was greater than 20 and the IC50 [6, 28] was 5 µM. The IC50 [6, 29] was greater than 100 µM, the IC50 [7, 30] was greater than 100 µM and the IC50 [7, 31] was 0.88 µM. The IC50 ([8]; read-out: IC50 MES-SA/Dx5 Air) was greater than 100 µM, the IC50 [8, 32] was 7.5 µM and the IC50 ([9]; read-out: IC50 IRS1SF Air) was 59 µM. It also gave an IC50 ([9]; read-out: IC50 IRS1SF Anoxia) of 0.3 µM, an IC50 [10, 33] of 0.88 µM and an IC50 [10, 34] greater than 100 µM. For the same compound, the “HCR P” value [10] was greater than 110, the IC50 [11, 35] was 30 µM and the IC50 [11, 36] was 60 µM. The IC50 [11, 37] was 60 µM, the IC50 [11, 38] was greater than 100 µM and the IC50 [11, 39] was greater than 100 µM. It also gave an IC50 [11, 40] of 1 µM, an IC90 [12, 41] of 100 µM and an IC90 [12, 42] of 1 µM. For the same compound, the “Plasma stability (% at 30 min)” value ([13]; 30 min) was 60%, the IC50 ([14]; read-out: IC50 UV135 Air) was greater than 100 µM and the IC50 ([14]; read-out: IC50 UV135 Anoxia) was 2 µM. The “Reduction Potentials, 100 mV/sec” value [15] was −609 mV, the “Reduction Potentials, 10,000 mV/sec” value [15] was −634 mV and the IC50 ([16]; read-out: IC50 AA8 Air) was greater than 100 µM. For the same compound, the IC50 ([16]; read-out: IC50 AA8 Anoxia) was 2 µM, the IC50 ([17]; read-out: IC50 MES-SA Air) was greater than 100 µM and the IC50 ([17]; read-out: IC50 MES-SA Anoxia) was 5 µM. For the same compound, the IC50 ([18]; read-out: IC50 HT29 Air) was greater than 100 µM, the IC50 ([18]; read-out: IC50 HT29 Anoxia) was 55 µM and the “HT29 HCR P” value [19] was greater than 2. It also gave an IC50 [19, 43] of 55 µM, an IC50 ([19]; HT-29, read-out: HT29 P H, value in parentheses) of 35 µM and an IC50 [19, 44] greater than 100 µM.
With Cn1c(COP(=O)(NCCBr)NCCBr)cnc1[N+](=O)[O-] [Compound 25] the “DX-5 HCR” value [1] was greater than 100, the IC50 [1, 22] was 1 µM and the IC50 [1, 23] was greater than 100 µM. The IC90 [2] was 15 µM, the IC50 ([3]; read-out: IC50 EM9 Air) was greater than 100 µM and the IC50 ([3]; read-out: IC50 EM9 Anoxia) was 7 µM. It also gave a Cmax [4, 24] of 22900 ng/mL, a Cmax [4, 25] of 27500 ng/mL and a half-life [4, 26] of 6.6 min. For the same compound, the half-life ([4]; mouse, ip, intraperitoneal administration in mice (min)) was 11 min, the half-life [4, 27] was 10.8 min and the half-life ([4]; mouse, iv, intravenous administration in mice (min)) was 6.7 min. For the same compound, the IC50 ([5]; read-out: IC50 UV41 Air) was 95 µM, the IC50 ([5]; read-out: IC50 UV41 Anoxia) was 0.2 µM and the “tumor volume and tumor growth delay” value [20] was “significant dose related decrease in tumor volume and increase in tumor growth delay”. The IC50 ([21]; read-out: IC50 PC3 Air) was greater than 100 µM, the IC50 ([21]; read-out: IC50 PC3 Anoxia) was 0.6 µM and the “HCT116 HCR” value [6] was greater than 100. The IC50 [6, 28] was 0.9 µM, the IC50 [6, 29] was greater than 100 µM and the IC50 [7, 30] was 86 µM. The IC50 [7, 31] was 0.15 µM, the IC50 ([8]; read-out: IC50 MES-SA/Dx5 Air) was greater than 100 µM and the IC50 [8, 32] was 0.3 µM. For the same compound, the IC50 ([9]; read-out: IC50 IRS1SF Air) was greater than 100 µM, the IC50 ([9]; read-out: IC50 IRS1SF Anoxia) was 2 µM and the IC50 [10, 33] was 0.05 µM. For the same compound, the IC50 ([10]; NCI-H460, read-out: IC50 in cells under hypoxia) was 0.05 µM, the IC50 [10, 34] was 50 µM and the “fold more toxic in hypoxic cells than in normoxic cells” value ([10]; anti-proliferation cytotoxicity assay) was 1000 fold. For the same compound, the “HCR P” value [10] was 1000, the IC50 [11, 35] was 1 µM and the IC50 ([11]; NCI-H460, read-out: IC50 in H460 cells, 0.3% O2) was 3 µM. It also gave an IC50 [11, 36] of 5 µM, an IC50 [11, 37] of 10 µM and an IC50 [11, 38] of 25 µM. For the same compound, the IC50 [11, 39] was 55 µM, the IC50 [11, 40] was 0.1 µM and the IC90 ([12]; read-out: IC90 H460 Monolayer 0.6% O2) was 0.6 µM. For the same compound, the IC90 [12, 41] was 20 µM, the IC90 [12, 42] was 0.1 µM and the “Plasma stability (at 20 min)” value ([13]; at 20 min) was 102%. For the same compound, the IC50 ([14]; read-out: IC50 UV135 Air) was greater than 100 µM, the IC50 ([14]; read-out: IC50 UV135 Anoxia) was 6 µM and the “Reduction Potentials, 100 mV/sec” value [15] was −594 mV. The “Reduction Potentials, 10,000 mV/sec” value [15] was −626 mV, the IC50 ([16]; read-out: IC50 AA8 Air) was greater than 100 µM and the IC50 ([16]; read-out: IC50 AA8 Anoxia) was 8 µM. For the same compound, the IC50 ([17]; read-out: IC50 MES-SA Air) was greater than 100 µM, the IC50 ([17]; read-out: IC50 MES-SA Anoxia) was 0.9 µM and the IC50 ([18]; read-out: IC50 HT29 Air) was greater than 100 µM. The IC50 ([18]; read-out: IC50 HT29 Anoxia) was 16 µM, the “HT29 HCR P” value [19] was greater than 6 and the IC50 [19, 43] was 16 µM. The IC50 [19, 44] was greater than 100 µM.
